Earlier results in patent publication US20180371365A1, “FABRIC SOFTENER COMPOSITIONS” (The Procter & Gamble Company, priority 2017, published 2018).

Settings: acidifying agents for compositions having pH 3.5 or greater

Row | pKa | Compound
1 | 7.0 | c1c[nH]cn1 [imidazole]
2 | 4.6 | O=C(O)C=Cc1ccc(O)cc1 [p-coumaric acid, 4-hydroxy cinnamic acid]
3 | 5.1 | CCCCCCC(=O)O [heptanoic acid]
4 | 5.2 | CCCCCCCCC(=O)O [nonanoic acid]
5 | 5.0 | C=CCCCCCCCCC(=O)O [undecylenic acid]
6 | 7.0 | OCl [hypochlorous acid]
